“And” between values parts separate entries of the source, which are not always exact repeats. Identical values can stand only once.
Columns and labels:
[1] = Plasma pharmacokinetics of vorinostat after oral administration (non-compartmental analysis)
Source text: The assays were validated according to the common FDA and EMA guidelines on bioanalytical method validation.

[2] = daily and continuous dosing; cited from earlier work
[3] = Phase I/II intra-patient dose escalation trial: safety (DLT, individual MTD, SDR, adverse events CTCAE v4.0)
Method: The study design was a single-arm, multi-center phase I/II clinical trial with two phases: Phase I was an intra-patient dose (de)escalation period until an individual maximum tolerable dose (MTD) was reached. […] A DLT was defined as grade 3 or 4 toxicity according to a selection of Common Toxicity Criteria for Adverse Events (CTCAE) (V4.0) and judged by the investigator as definitely, probably, or possibly related to the study drug. The starting dose was 180 mg/m^2/day and the minimum dose was 30 mg/m^2/day. A dosing nomogram was used to minimize interpatient dosing variability.
De-escalation was done in steps of 50 mg/m^2/day until a minimal dose of 30 mg/m^2/day was reached. […] Upon reaching her or his individual MTD, a patient seamlessly entered phase II of the protocol.
During phase II, disease assessments were performed every 3 months, starting 3 months after reaching individual MTD. If treatment was discontinued for any reason during phase II, treatment was prolonged thereafter to provide a minimal treatment window of 3 months before measuring response. Patients without progressive disease continued the therapy at their individual MTD until disease progression (but no longer than 9 months). In case of clinical benefit, treatment could be continued on an individual basis at the discretion of the investigator. Toxicities were graded according CTCAE V4.0.
The primary end point was to determine a safe dose recommendation (SDR), defined as the highest dose with a DLT in no more than 1/50 patients.
The DLT associated with the starting dose was to be continuously monitored using a Bayesian criterion with a non-informative prior and a binomial-beta model for the DLT rate r. […] This decision process was repeated, i.e., it was applied to the lowered starting dose in an analogous way.
All adverse events were summarized, using MedDRA preferred terms.

[4] = 530 mg/m2/d oral, plasma, maximum of 3 values
[5] = 530 mg/m2/d oral, plasma, minimum of 3 values
[6] = maximum Grade 3 CTCAE v4.0, n = 50

## O=C(CCCCCCC(=O)Nc1ccccc1)NO [vorinostat]
[1]; [4]
  Clearance, Maximum: 678 L/h
  Cmax, Maximum: 629 ng/mL
[1]; [5]
  Clearance, Minimum: 241 L/h
  Cmax, Minimum: 451 ng/mL
  Vz, Minimum: 508 L
[1]; dose level 130 mg/m2/d, mean
  t1/2: 2.16 h
[1]; dose level 130 mg/m2/d, median
  t1/2: 2.16 h
[1]; dose level 180 mg/m2/d, mean
  t1/2: 2.22 h
[1]; dose level 330 mg/m2/d, mean
  t1/2: 2.13 h
[1]; human, in vivo, 130 mg/m2
  AUC(0-t): 1140 ng·h/mL
  Clearance: 167 L/h
  Vz: 563 L
[1]; human, in vivo, 130 mg/m2, AUClast
  AUC(0-t): 4.32 µM·h and 970 ng·h/mL
[1]; human, in vivo, 130 mg/m2, Clearance
  Clearance: 108 L/h
[1]; human, in vivo, 130 mg/m2, Cmax
  Cmax: 1.02 µM and 269 ng/mL
[1]; human, in vivo, 130 mg/m2, Vz
  Vd: 336 L
[1]; human, in vivo, 180 mg/m2
  Clearance: 225 L/h
  Tmax: 2.39 h
  Vz: 681 L
  t1/2: 1.93 h
[1]; human, in vivo, 180 mg/m2, AUClast
  AUC(0-t): 3.75 µM·h and 992 ng·h/mL
[1]; human, in vivo, 180 mg/m2, Clearance
  Clearance: 182 L/h
[1]; human, in vivo, 180 mg/m2, Cmax
  Cmax: 1.06 µM and 281 ng/mL
[1]; human, in vivo, 180 mg/m2, Tmax
  Tmax: 1.5 h
[1]; human, in vivo, 180 mg/m2, Vz
  Vd: 490 L
[1]; human, in vivo, 214 mg/m2
  Clearance: 399 L/h
[1]; human, in vivo, 214 mg/m2, AUClast
  AUC(0-t): 2.52 µM·h and 666 ng·h/mL
[1]; human, in vivo, 214 mg/m2, Clearance
  Clearance: 399 L/h
[1]; human, in vivo, 214 mg/m2, Cmax
  Cmax: 1.29 µM and 341 ng/mL
[1]; human, in vivo, 214 mg/m2, t1/2
  half-life: 1.12 h
[1]; human, in vivo, 230 mg/m2
  AUCtotal: 1310 ng·h/mL
  Clearance: 257 L/h
  Vz: 640 L
[1]; human, in vivo, 230 mg/m2, AUClast
  AUC(0-t): 4.89 µM·h and 1290 ng·h/mL
[1]; human, in vivo, 230 mg/m2, Clearance
  Clearance: 221 L/h
[1]; human, in vivo, 230 mg/m2, Cmax
  Cmax: 1.44 µM and 380 ng/mL
[1]; human, in vivo, 230 mg/m2, Tmax
  Tmax: 1.5 h
[1]; human, in vivo, 230 mg/m2, Vz
  Vd: 532 L
[1]; human, in vivo, 230 mg/m2, t1/2
  half-life: 1.63 h
[1]; human, in vivo, 250 mg/m2
  Clearance: 189 L/h
  Tmax: 1.75 h
  t1/2: 1.48 h
[1]; human, in vivo, 250 mg/m2, AUClast
  AUC(0-t): 5.77 µM·h and 1520 ng·h/mL
[1]; human, in vivo, 250 mg/m2, Clearance
  Clearance: 189 L/h
[1]; human, in vivo, 250 mg/m2, Tmax
  Tmax: 1.75 h
[1]; human, in vivo, 250 mg/m2, Vz
  Vd: 398 L
[1]; human, in vivo, 250 mg/m2, t1/2
  half-life: 1.48 h
[1]; human, in vivo, 280 mg/m2
  AUC(0-t): 4.96 µM·h
  Clearance: 195 L/h
  Tmax: 2.09 h
  t1/2: 1.83 h
[1]; human, in vivo, 280 mg/m2, AUClast
  AUC(0-t): 1310 ng·h/mL and 6.33 µM·h
[1]; human, in vivo, 280 mg/m2, Clearance
  Clearance: 207 L/h
[1]; human, in vivo, 280 mg/m2, Tmax
  Tmax: 1.5 h
[1]; human, in vivo, 280 mg/m2, t1/2
  half-life: 1.5 h
[1]; human, in vivo, 330 mg/m2
  Clearance: 149 L/h
  Tmax: 2.00 h
  Vz: 427 L
[1]; human, in vivo, 330 mg/m2, AUClast
  AUC(0-t): 8.06 µM·h and 2130 ng·h/mL
[1]; human, in vivo, 330 mg/m2, Clearance
  Clearance: 126 L/h
[1]; human, in vivo, 330 mg/m2, Cmax
  Cmax: 1.83 µM and 483 ng/mL
[1]; human, in vivo, 330 mg/m2, Tmax
  Tmax: 2.5 h
[1]; human, in vivo, 330 mg/m2, Vz
  Vd: 429 L
[1]; human, in vivo, 330 mg/m2, t1/2
  half-life: 1.89 h
[1]; human, in vivo, 380 mg/m2, AUClast
  AUC(0-t): 14.2 µM·h and 3750 ng·h/mL
[1]; human, in vivo, 380 mg/m2, Cmax
  Cmax: 3.38 µM and 893 ng/mL
[1]; human, in vivo, 380 mg/m2, Tmax
  Tmax: 4.3 h
[1]; human, in vivo, 430 mg/m2
  Clearance: 174 L/h
  Tmax: 1.00 h
  t1/2: 2.49 h
[1]; human, in vivo, 430 mg/m2, AUClast
  AUC(0-t): 6.39 µM·h and 1690 ng·h/mL
[1]; human, in vivo, 430 mg/m2, Clearance
  Clearance: 174 L/h
[1]; human, in vivo, 430 mg/m2, Vz
  Vd: 661 L
[1]; human, in vivo, 430 mg/m2, t1/2
  half-life: 2.49 h
[1]; human, in vivo, 480 mg/m2
  Clearance: 237 L/h
[1]; human, in vivo, 480 mg/m2, AUClast
  AUC(0-t): 14.2 µM·h and 3760 ng·h/mL
[1]; human, in vivo, 480 mg/m2, Clearance
  Clearance: 237 L/h
[1]; human, in vivo, 480 mg/m2, Cmax
  Cmax: 4.64 µM and 1230 ng/mL
[1]; human, in vivo, 480 mg/m2, Tmax
  Tmax: 0.5 h
[1]; human, in vivo, 480 mg/m2, Vz
  Vd: 421 L
[1]; human, in vivo, Cmax
  Cmax: > 270 ng/mL
[1]; human, in vivo, po
  AUC0_0-inf/D: 5.49 ± 2.75 (ng/mL*h)/(mg/d)
  Clearance: 235 ± 149 L/h
  Clearance, 25% Percentile: 181 L/h
  Cmax/D: 1.70 ± 1.18 (ng/mL)/(mg/d)
  Vz: 644 ± 460 L
  Vz, 25% Percentile: 397 L
  t½: 1.98 ± 0.96 h
[1]; human, in vivo, po, 530 mg/m2
  Clearance, Mean: 408 L/h
  Clearance, Median: 304 L/h
  Vz, Maximum: 1330 L
  Vz, Mean: 1008 L
  Vz, Median: 1186 L
[1]; human, in vivo, po, 530 mg/m2, AUClast, Median
  AUC(0-t): 5.82 µM·h and 1540 ng·h/mL
[1]; human, in vivo, po, 530 mg/m2, Tmax, Mean
  Tmax: 2.17 h
[1]; human, in vivo, po, 530 mg/m2, t1/2, Mean
  half-life: 1.84 h
[1]; human, in vivo, po, 530 mg/m2, t1/2, Median
  half-life: 1.46 h
[1]; human, in vivo, po, 580 mg/m2
  AUClast, Median: 10.3 µM·h
  Clearance, Maximum: 453 L/h
  Clearance, Mean: 295 L/h
  Clearance, Median: 211 L/h
  Clearance, Minimum: 155 L/h
  Cmax, Maximum: 1689 ng/mL
  Cmax, Minimum: 315 ng/mL
  Tmax, Maximum: 2.00 h
  Tmax, Mean: 1.40 h
  Vz, Maximum: 2135 L
  Vz, Mean: 793 L
  Vz, Median: 480 L
  t1/2, Maximum: 3.30 h
  t1/2, Minimum: 0.850 h
[1]; human, in vivo, po, 580 mg/m2, AUClast, Mean
  AUC(0-t): 11.3 µM·h
[1]; human, in vivo, po, 580 mg/m2, Cmax, Mean
  Cmax: 4.33 µM and 1140 ng/mL
[1]; human, in vivo, po, 580 mg/m2, Cmax, Median
  Cmax: 5.42 µM and 1430 ng/mL
[1]; human, in vivo, po, 580 mg/m2, t1/2, Mean
  half-life: 1.78 h
[1]; human, in vivo, po, 580 mg/m2, t1/2, Median
  half-life: 1.62 h
[1]; human, in vivo, po, Tmax
  Tmax: 2.07 ± 1.37 h
[1]; read-out: Cmax, Maximum, 530 mg/m2/d oral, plasma, maximum of 3 values
  Cmax: 2380 nM
[1]; read-out: Cmax, Minimum, 530 mg/m2/d oral, plasma, minimum of 3 values
  Cmax: 1710 nM
[2]
  pediatric recommended phase 2 dose: 230 mg/m^2/day
[3]; Safety population (n = 50)
  median individual MTD: 280 mg/m^2/day
  patients who reached the maximum individual MTD of 580 mg/m^2/day: 4/50
  treatment-related deaths: No treatment-related deaths
[3]; highest dose with a DLT in no more than 1/50 patients, starting dose for individual dose escalation
  safe dose recommendation (SDR): 130 mg/m^2/day
[3]; [6]
  Patients with treatment related AE: Anemia: 2 (4.0) Patients (%)
  Patients with treatment related AE: Decreased appetite: 2 (4.0) Patients (%)
  Patients with treatment related AE: Diarrhea: 1 (2.0) Patients (%)
  Patients with treatment related AE: Fatigue: 7 (14.0) Patients (%)
  Patients with treatment related AE: Headache: 1 (2.0) Patients (%)
  Patients with treatment related AE: Hypermagnesemia: 3 (6.0) Patients (%)
  Patients with treatment related AE: Nausea: 4 (8.0) Patients (%)
  Patients with treatment related AE: Platelet count decreased: 15 Patients (%) and 15 (30.0) Patients (%)
  Patients with treatment related AE: Vomiting: 2 (4.0) Patients (%)
  Patients with treatment related AE: Weight decreased: 3 (6.0) Patients (%)
  Patients with treatment related AE: White blood cell decreased: 8 (16.0) Patients (%)
[3]; maximum Grade 4 CTCAE v4.0, n = 50
  Patients with treatment related AE: Platelet count decreased: 16 Patients (%) and 16 (32.0) Patients (%)
[3]; maximum dose of the escalation scheme
  maximum individual MTD: 580 mg/m^2/day
[3]; single patient: High grade glioma, highest methylation score for glioblastoma IDH wt
  MTD: 530 mg/m^2/d
[3]; single patient: High grade glioma, methylation profile pilocytic astrocytoma, BRAF (p.V600E)
  MTD: 280 mg/m^2/d
[3]; single patient: High grade glioma, no molecular data, last dose level 280 mg/m^2/d
  MTD: 530 mg/m^2/d
[3]; single patient: Medulloblastoma
  MTD: 580 mg/m^2/d
[3]; single patient: SETTLE tumor
  MTD: 580 mg/m^2/d

From publication PMC6902473 (Clinical Epigenetics, 2019)
